# Laboratory results published in patent US8119627B2 (Sterix Limited, priority 2005, dated 2012).
# Where a name gives a salt, the structure may show the parent alone.
# Target: T1, human 17β-HSD3 (Homo sapiens, UniProt P37058)
# T1 construct: expressed in transfected cells; host or cells: 293-EBNA cells (human), stably transfected
# T1 sequence (P37058 1-310): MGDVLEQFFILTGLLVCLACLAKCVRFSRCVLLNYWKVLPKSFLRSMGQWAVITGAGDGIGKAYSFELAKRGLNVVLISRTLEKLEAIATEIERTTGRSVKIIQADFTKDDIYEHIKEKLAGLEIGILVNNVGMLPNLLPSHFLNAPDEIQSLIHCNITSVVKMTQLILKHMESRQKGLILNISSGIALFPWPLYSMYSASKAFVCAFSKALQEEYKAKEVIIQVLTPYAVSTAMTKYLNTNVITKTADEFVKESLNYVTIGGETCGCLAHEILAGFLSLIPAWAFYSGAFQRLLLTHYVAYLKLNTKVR
# Test: 17β-Hydroxysteroid dehydrogenase Type 3 activity in stably transfected 293-EBNA cells (3H-androstenedione to testosterone conversion)
# Format: cell-based
# Settings: 10 μM test compound; 293-EBNA cells stably transfected with 17β-HSD Type 3; 2-3 nM 3H-androstenedione; 2 hours
# Protocol: Assay Protocol—17β-Hydroxysteroid Dehydrogenase Type 3 Activity in the Presence of Regulatory Agents
# 293-EBNA cells stably transfected with 17β-HSD Type 3 were plated at 50,000 cells/well in 24 well plates in complete growth medium. After 48 hours 2-3 nM ^3H-Androstenedione in assay medium (500 ml MEME medium with 5 ml 100× Pen/Strep, 5 ml 100×L-Glutamine, 5 ml 100×NEAA and 5 ml 7.5% sodium bicarbonate solution) was added with or without test compound at 1.5 ml/well (triplicate), and the cells incubated at 37° C.
# Two hours later 1 ml medium was removed from each well and placed in a 125×16 mm glass test tube containing 25 μl of recovery solution (5000 dpm ^14C-Testosterone and 25 μg unlabelled Testosterone). Ether (4 ml) was added and the tubes vortexed at high speed for 2×30 sec. After the samples had settled into two phases they were snap-frozen in a dry ice/methanol bath. The upper organic phase was decanted into 75×12 mm tubes and evaporated to dryness under an airstream using a sample concentrator (TECHNE) at 40° C. The samples were resuspended in ether (8 drops, then a further 3), spotted onto silica 60 F254 20 cm×20 cm TLC plates, and separated using a 4:1 v/v dichloromethane:ethyl acetate mobile phase.
# After drying the plates, the major spots were marked under a UV lamp, cut out, and placed in individual scintillation vials containing 0.5 ml methanol. These were then shaken lightly and allowed to stand for 15 min before adding 10 ml of EcoScint A (scintillation fluid) to each tube along with 0.5 ml assay medium, and counted in a scintillation spectrometer (Beckman) using a program for dual [^3H/^14C] isotopes. The number of cells/well was then counted using a Coulter counter (Beckman).
# The inhibitory activity of the test compounds is then assessed by calculating the amount of product formed correcting for crossover between isotope counts, recovery, dilution and non-enzymatic degradation (fmol/hr/million cells) with and without inhibitor, (% inhibition).
# Compounds were tested at 10 μM for inhibition of human 17β-HSD3 with typically […] human 293-EBNA cells/well.
row,Structure (SMILES),inhibition at 10 µM [%]
1,"O=C(Nc1ccccc1Oc1ccc(C(F)(F)F)cc1)C1CCN(C(=O)c2ccccc2)CC1 [STX1607, 1-Benzoyl-piperidine-4-carboxylic acid [2-(4-trifluoromethyl-phenoxy)-phenyl]-amide]",20 to 60
2,"O=C(c1ccco1)N1CCC(Nc2ccccc2Oc2ccc(Cl)cc2Cl)CC1 [STX1779, {4-[2-(2,4-Dichloro-phenoxy)-phenylamino]-piperidin-1-yl}-furan-2-yl-methanone]",20 to 60
3,"CC(=O)NC(CC(=O)Nc1ccccc1Oc1ccc(Cl)cc1)c1ccccc1 (stereo not shown) [STX1858, N-[2-(4-chlorophenoxy)phenyl]-3-acetamido-3-phenylpropanamide]",< 20
4,"CC(=O)N1CCC(Nc2ccccc2Oc2ccc(Cl)cc2)CC1 [STX1629, 1-{4-[2-(4-chlorophenoxy)phenylamino]-piperidin-1-yl}-ethanone]",> 60
5,"CC(=O)N1CCC(C(=O)Nc2ccccc2Oc2ccc(C(F)(F)F)cc2)CC1 [STX1606, 1-Acetyl-piperidine-4-carboxylic acid [2-(4-trifluoromethyl-phenoxy)-phenyl]-amide]",20 to 60
6,"CC(C)(C)C(=O)N1CCC(Nc2ccccc2Oc2ccc(Cl)cc2)CC1 [STX1631, 1-{4-[2-(4-chlorophenoxy)phenylamino]-piperidin-1-yl}-2,2-dimethylpropan-1-one]",20 to 60
7,"CC(=O)N1CCC(C(=O)Nc2ccccc2Oc2ccc(Cl)cc2)CC1 [STX1617, 1-Acetylpiperidine-4-carboxylic acid [2-(4-chlorophenoxy)phenyl]amide]",20 to 60
8,"CC(=O)N1CCCC(Nc2ccccc2Oc2ccc(Cl)cc2)c2ccccc21 (stereo not shown) [STX2171, 1-Acetyl-5-[2-(4-Chloro-phenoxy)-phenylamino]-2,3,4,5-tetrahydro-benzo[b]azepine]",> 60
9,"O=C(Nc1ccccc1Oc1ccc(Cl)cc1Cl)C1CCN(C(=O)c2ccccc2)CC1 [STX1613, 1-Benzoylpiperidine-4-carboxylic acid [2-(2,4-dichloro-phenoxy)phenyl]amide]",20 to 60
10,"CC(=O)N1CCC(Nc2ccccc2Oc2ccc(Cl)cc2)CC1c1ccccc1 (stereo not shown) [STX2419, 1-(4-(2-(4-Chlorophenoxy)phenylamino)-2-phenylpiperidin-1-yl)ethanone]",20 to 60
11,"CC(=O)N1CCC(Nc2ccccc2Oc2ccc(Cl)cc2)CC1C(C)C (stereo not shown) [STX2523, 1-(4-(2-(4-Chlorophenoxy)phenylamino)-2-iso-propylpiperidin-1-yl)ethanone]",> 60
12,"O=C(Nc1ccccc1Oc1ccc(OC(F)(F)F)cc1)C1CCN(C(=O)c2ccccc2)CC1 [STX1625, 1-Benzoyl-piperidine-4-carboxylic acid [2-(4-trifluoromethoxy-phenoxy)-phenyl]-amide]",20 to 60
13,"O=C(c1ccccc1)N1CCC(Nc2ccccc2Oc2ccc(Cl)cc2Cl)CC1 [STX1623, {4-[2-(2,4-Dichlorophenoxy)phenylamino]piperidin-1-yl}phenylmethanone]",> 60
14,O=C(c1ccccc1)N1CCC(Nc2ccccc2Oc2ccc(Cl)cc2)CC1,> 60
15,CC(=O)N1CCC(Nc2ccccc2Oc2ccc(Cl)cc2)c2ccccc21 (stereo not shown) [STX2138],20 to 60
16,"CC(=O)N1CCC(Nc2ccccc2-c2ccc(Cl)cc2)CC1 [STX2044, 1-[4-(4′-Chlorobiphenyl-2-ylamino)piperidin-1-yl]ethanone]",20 to 60
17,"CC(=O)NCCC(=O)Nc1ccccc1Oc1ccc(Cl)cc1 [STX1859, N-[2-(4-chlorophenoxy)phenyl]-3-acetamidopropanamide]",< 20
18,"CC(=O)N1CCC(C(=O)Nc2ccccc2Oc2ccc(OC(F)(F)F)cc2)CC1 [STX1624, 1-Acetyl-piperidine-4-carboxylic acid [2-(4-trifluoromethoxy-phenoxy)-phenyl]-amide]",20 to 60
19,"CC(=O)N1CCCC(Nc2ccccc2Oc2ccc(Cl)cc2)CC1 (stereo not shown) [STX1762, 1-(4-(2-(4-chlorophenoxy)phenylamino)azepan-1-yl)ethanone]",> 60
20,"CC(=O)N1CCC(Nc2ccccc2Oc2ccc(Cl)cc2Cl)CC1 [STX1616, 1-{4-[2-(2,4-Dichlorophenoxy)phenylamino]piperidin-1-yl}ethanone]",> 60
21,"CC(=O)N1CCC(C(=O)Nc2ccccc2Oc2cc(Cl)cc(Cl)c2)CC1 [STX1604, 1-Acetyl-piperidine-4-carboxylic acid [2-(3,5-dichloro-phenoxy)-phenyl]-amide]",20 to 60
22,"O=C(Nc1ccccc1Oc1cc(Cl)cc(Cl)c1)C1CCN(C(=O)c2ccccc2)CC1 [STX1605, 1-Benzoyl-piperidine-4-carboxylic acid [2-(3,5-dichloro-phenoxy)-phenyl]-amide]",20 to 60
23,"CC(=O)N1CC(N(Cc2ccccc2Oc2ccc(Cl)cc2)C(C)=O)Cc2ccccc21 (stereo not shown) [STX2525, N-(1-Acetyl-1,2,3,4-tetrahydro-quinolin-3-yl)-N-[2-(4-chloro-phenoxy)-benzyl]-acetamide]",20 to 60
24,"CC(=O)N1CCC(Nc2ccccc2-c2ccccc2Oc2ccccc2)CC1 [STX2048, 1-[4-(2′-Phenoxybiphenyl-2-ylamino)piperidin-1-yl]ethanone hydrochloride]",20 to 60
25,"O=C(Nc1ccccc1Oc1ccc(Cl)cc1)C1CCN(C(=O)c2ccccc2)CC1 [STX1615, 1-Benzoylpiperidine-4-carboxylic acid [2-(4-chlorophenoxy)phenyl]amide]",< 20
26,"CC(=O)N1CCC(C(=O)Nc2ccccc2Oc2ccc(Cl)cc2Cl)CC1 [STX1614, 1-Acetylpiperidine-4-carboxylic acid [2-(2,4-dichlorophenoxy)phenyl]amide]",> 60

# Tested on: not given
# Test: not given
# Settings: not given
row,Structure (SMILES),melting point [°C]
1,O=C(Nc1ccccc1Oc1ccc(Cl)cc1Cl)C1CCN(S(=O)(=O)c2cc(Cl)ccc2Cl)CC1,194 to 196
2,CC(C)C(=O)N1CCC(NC(=O)c2ccccc2Oc2ccc(Cl)cc2Cl)CC1,51 to 54
3,"CC(=O)N1CCC(C(=O)Nc2ccccc2Oc2ccc(Cl)cc2)CC1 [STX1617, 1-Acetylpiperidine-4-carboxylic acid [2-(4-chlorophenoxy)phenyl]amide]",195 to 196
4,"O=C(Nc1ccccc1Oc1ccc(Cl)cc1Cl)C1CCN(C(=O)c2ccccc2)CC1 [STX1613, 1-Benzoylpiperidine-4-carboxylic acid [2-(2,4-dichloro-phenoxy)phenyl]amide]",176 to 177
5,"CC(=O)N1CCC(Nc2ccccc2Oc2ccc(Cl)cc2Cl)CC1 [STX1616, 1-{4-[2-(2,4-Dichlorophenoxy)phenylamino]piperidin-1-yl}ethanone]",145 to 146
6,"O=C(Nc1ccccc1Oc1ccc(Cl)cc1)C1CCN(C(=O)c2ccccc2)CC1 [STX1615, 1-Benzoylpiperidine-4-carboxylic acid [2-(4-chlorophenoxy)phenyl]amide]",158 to 160
7,"CC(=O)N1CCC(C(=O)Nc2ccccc2Oc2ccc(Cl)cc2Cl)CC1 [STX1614, 1-Acetylpiperidine-4-carboxylic acid [2-(2,4-dichlorophenoxy)phenyl]amide]",194 to 196
8,O=C(NC1CCN(C(=O)c2ccccc2)CC1)c1ccccc1Oc1ccc(Cl)cc1Cl,63 to 66
